Measured values: patent US20150315188A1, “COMPOUNDS AND METHODS FOR TREATMENT OF HYPERTENSION” (MEDIVATION TECHNOLOGIES, INC., priority 2012, published 2015)

Key:
Set-up in all cases: purchased Milipore (Millipore)
[1] = molecular target: T1, Human adrenergic α1B receptor (Homo sapiens, UniProt P35368); test: Radioligand binding, adrenergic α1B (Protocol Group B); conditions: Protocol Group B; for Percentage inhibition of ligand binding, Adrenergic α1B (0.1 μM): 0.1 μM compound
T1 sequence (P35368 1-520): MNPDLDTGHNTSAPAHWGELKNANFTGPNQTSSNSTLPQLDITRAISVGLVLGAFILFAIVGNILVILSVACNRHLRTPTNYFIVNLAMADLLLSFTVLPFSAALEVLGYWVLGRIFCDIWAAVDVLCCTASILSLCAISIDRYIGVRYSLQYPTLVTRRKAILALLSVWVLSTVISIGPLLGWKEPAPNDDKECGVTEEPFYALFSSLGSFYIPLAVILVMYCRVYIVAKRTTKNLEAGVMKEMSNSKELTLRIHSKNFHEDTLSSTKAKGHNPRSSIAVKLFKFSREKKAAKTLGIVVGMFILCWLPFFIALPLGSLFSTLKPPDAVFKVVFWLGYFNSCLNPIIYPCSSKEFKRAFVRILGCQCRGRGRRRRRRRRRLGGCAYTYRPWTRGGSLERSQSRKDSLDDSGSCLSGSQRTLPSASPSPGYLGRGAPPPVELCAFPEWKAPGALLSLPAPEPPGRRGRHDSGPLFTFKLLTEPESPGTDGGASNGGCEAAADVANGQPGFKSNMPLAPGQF
Summary of the method: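 Values are percent inhibition of specific [3H]prazosin (0.3 nM) binding or estimated Ki, from filtration counting. Human α1B recombinant membranes, Tris-HCl pH 7.4 buffer with MgCl2 and EDTA, 60 min at 25 °C, 1% DMSO vehicle; 10 μM prazosin defined nonspecific binding.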

[2] = molecular target: T2, Human adrenergic α2A receptor (Homo sapiens, UniProt P08913); test: Radioligand binding, adrenergic α2A (Protocol Group B); conditions: Protocol Group B; for Percentage inhibition of ligand binding, Adrenergic α2A (0.1 μM): 0.1 μM compound
T2 sequence (P08913 1-465): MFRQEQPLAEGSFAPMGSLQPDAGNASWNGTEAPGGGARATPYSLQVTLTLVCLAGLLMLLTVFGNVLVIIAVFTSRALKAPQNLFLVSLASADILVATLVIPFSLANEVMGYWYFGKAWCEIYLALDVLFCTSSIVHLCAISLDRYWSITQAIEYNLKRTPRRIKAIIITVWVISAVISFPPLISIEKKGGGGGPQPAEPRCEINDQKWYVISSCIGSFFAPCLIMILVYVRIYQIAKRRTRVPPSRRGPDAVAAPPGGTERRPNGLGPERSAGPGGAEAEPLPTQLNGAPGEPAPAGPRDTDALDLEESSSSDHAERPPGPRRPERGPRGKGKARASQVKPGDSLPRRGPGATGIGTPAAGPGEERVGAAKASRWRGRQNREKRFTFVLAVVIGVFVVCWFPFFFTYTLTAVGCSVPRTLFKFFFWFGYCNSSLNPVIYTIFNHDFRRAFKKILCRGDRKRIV
Summary of the method: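 Compounds (1% DMSO vehicle, various concentrations) competed against 2 nM [^3H]MK-912 on recombinant receptor membranes for 60 min at 25° C, Tris-HCl pH 7.4 buffer with Mg2+, Ca2+, BSA. Bound radioligand filtered and counted; 10 μM rauwolscine set nonspecific binding. Values: percent inhibition of specific binding or estimated Ki.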

[3] = molecular target: T3, Human adrenergic α2B receptor (Homo sapiens, UniProt P18089); test: Radioligand binding, adrenergic α2B (Protocol Group B); conditions: Protocol Group B; for Percentage inhibition of ligand binding, Adrenergic α2B (10 nM): 10 nM compound, 0.01 µM; for Percentage inhibition of ligand binding, Adrenergic α2B (30 nM): 30 nM compound, 0.03 µM; for Percentage inhibition of ligand binding, Adrenergic α2B (0.1 μM): 0.1 μM compound
T3 sequence (P18089 1-450): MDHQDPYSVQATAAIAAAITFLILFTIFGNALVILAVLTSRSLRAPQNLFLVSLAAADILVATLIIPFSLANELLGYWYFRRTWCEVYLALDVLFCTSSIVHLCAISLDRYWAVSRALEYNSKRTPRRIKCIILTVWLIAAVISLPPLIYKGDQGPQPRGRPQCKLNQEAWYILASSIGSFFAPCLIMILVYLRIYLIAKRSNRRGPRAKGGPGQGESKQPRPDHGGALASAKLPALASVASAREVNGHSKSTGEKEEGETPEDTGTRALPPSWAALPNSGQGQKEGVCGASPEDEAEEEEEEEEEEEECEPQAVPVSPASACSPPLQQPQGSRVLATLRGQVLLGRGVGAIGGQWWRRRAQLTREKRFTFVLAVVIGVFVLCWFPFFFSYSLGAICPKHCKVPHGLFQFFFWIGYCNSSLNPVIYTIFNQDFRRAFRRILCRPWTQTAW
Summary of the method: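 Compounds at various concentrations in 1% DMSO were tested on recombinant membranes in Tris-HCl pH 7.4 buffer containing MgCl2, CaCl2 and 0.2% BSA.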

| Percentage inhibition of ligand binding, Adrenergic α1B (0.1 μM) [1] | Percentage inhibition of ligand binding, Adrenergic α1B (0.3 μM) ([1]; 0.3 μM compound) | Percentage inhibition of ligand binding, Adrenergic α2A (0.1 μM) [2] | Percentage inhibition of ligand binding, Adrenergic α2A (0.3 μM) ([2]; 0.3 μM compound) | Percentage inhibition of ligand binding, Adrenergic α2B (10 nM) [3] | Percentage inhibition of ligand binding, Adrenergic α2B (30 nM) [3] | Percentage inhibition of ligand binding, Adrenergic α2B (0.1 μM) [3] | Ki ([2]; estimated Ki) | Ki ([3]; estimated Ki, read-out: Ki α2B) | inhibition at 0.3 µM ([1]; 0.3 μM compound, read-out: Percentage inhibition of ligand binding, Adrenergic α1B (0.3 μM)) | inhibition at 0.3 µM ([2]; 0.3 μM compound, read-out: Percentage inhibition of ligand binding, Adrenergic α2A (0.3 μM)) | SMILES |
| --- | --- | --- | --- | --- | --- | --- | --- | --- | --- | --- | --- |
| 4% | 3% | 5% | 0% | 11% | 5% | 20% | – | – | – | – | Cc1cc(F)cc2c3c(n(CC(C)(O)c4cccnc4)c12)CC1CCCN1C3 (single isomer, unassigned) [76b] |
| 28% | – | 15% | – | – | 22% | – | – | – | – | – | Cc1ccc2c(c1)c1c(n2CC(C)(O)c2ccc(F)cc2)CN2CCC1C2 (single isomer, unassigned) [134d] |
| 68% | – | 89% | – | – | 100% | – | – | – | – | – | Cc1cc(Br)c2c(c1)c1c(n2CC(O)c2ccncc2)CCN2CCCC12 (single isomer, unassigned) [145b] |
| 94% | – | 93% | – | – | 100% | – | – | – | – | – | OC(Cn1c2c(c3cc(Cl)ccc31)C1CCCN1CC2)c1ccncc1 (single isomer, unassigned) [143b] |
| 41% | 69% | 67% | 84% | 90% | 96% | – | 24.5 nM | 0.98 nM | – | – | Cc1cc(F)cc2c3c(n(CC(C)(O)c4cccnc4)c12)CCN1CCCC31 (single isomer, unassigned) [75c] |
| 10% | 10% | 6% | 5% | 5% | 20% | 32% | – | – | – | – | Cc1ccc2c(c1)c1c(n2CC(C)(O)c2ccc(N(C)C)nc2)CCN(C)C1 (single isomer, unassigned) [39b] |
| 4% | 18% | −7% | −2% | −10% | 0% | 34% | – | – | – | – | Cc1ccc2c(c1)c1c(n2CC(O)c2ccccn2)CC2CCCN2C1 (single isomer, unassigned) [45d] |
| 12% | – | 23% | – | −9% | −9% | – | – | – | 13% | 9% | CC(O)(Cn1c2c(c3cc(F)cc(Cl)c31)C1CCCN1CC2)c1cccnc1 (single isomer, unassigned) [89a] |
| 1% | 6% | −3% | −1% | −6% | 7% | – | – | – | – | – | Cc1cc(F)c2c(c1)c1c(n2CC(C)(O)c2cccnc2)CCN2CCCC12 (single isomer, unassigned) [79c] |
| 20% | 55% | −7% | 38% | 41% | 58% | 80% | – | – | – | – | OC(Cn1c2c(c3cc(F)ccc31)C1CCCN1CC2)c1ccncc1 (single isomer, unassigned) [18a] |
